PMC6756013, “B591, a novel specific pan-PI3K inhibitor, preferentially targets cancer stem cells” (Oncogene, 2019)

Key:
[1] = tested on: PIP3/PI(4,5)P2 ratio in HCT116 cells; experiment: Cellular PI3K kinase assay (PIP3 and PI(4,5)P2 ELISA); format: cell-based; settings: 10 h treatment
Method: Cells were seeded at density of 3 × 10^7 cells/150 mm dish. After treatment with different concentrations of B591 for 10 h, the media was removed and 10 ml of ice-cold 0.5 M TCA was immediately added. Incubate cells on ice for 5 min. Cells were scraped and centrifuged at 3000 rpm for 7 min at 4 ℃. The pellet was resuspended in 3 ml of 5% […] acid/1 mM EDTA, vortexed for 30 s, and centrifuged at 3000 rpm for 5 min. The supernatant was discarded and the cells was washed one more time. Afterward, neutral lipids were extracted adding 3 ml of MeOH:CHCl3 (2:1) and continuously vortexing for 10 min at room temperature. Extracts were centrifuged at 3000 rpm for 5 min, the supernatant was discarded, and this extraction step was repeated one more time. The acidic lipids were extracted adding 2.25 ml MeOH:CHCl3:12 M HCl (80:40:1) with continuous vortexing over 25 min at room temperature. Extracts were centrifuged at 3000 rpm for 5 min and the supernatant was transferred to a new 15 ml tube; 0.75 ml of CHCl3 and 1.35 ml of 0.1 M HCl were added to the supernatant, vortexed, and centrifuged at 3000 rpm for 5 min to separate organic and aqueous phases. […] Once phospholipids were isolated from cells, PIP3 and PI(4,5)P2 levels were measured using ELISA kits (Echelon, K-2500s and K4500) according to the manufacturer’s instructions.

[2] = tested on: SUM-159PT, MCF7 and MDA-MB-231 mammospheres; experiment: Mammosphere formation assay; format: cell-based, human; settings: treated 5 days
Method: Fig. 4 B591 inhibits CSCs and tumorigenesis. a B591 inhibited mammosphere-formation of SUM-159PT, MCF7, and MDA-MB-231 cells. Mammospheres were cultured as described in Materials and methods section. […] The mammospheres were subsequently passaged for another two generations and each generation of the mammospheres were cultured for 5 days without B591 and then counted under a phase-contrast microscopy. The relative mammosphere-formation ability is shown as percentage, and data represent mean ± SD from three independent experiments. c, d Representative flow cytometry plots show the effect of B591 on CD44^high/CD24^low (c) and ALDH^high (d) breast CSCs population from SUM-159PT cells. e Quantification of flow cytometry analysis of CD44^high/CD24^low and ALDH^high breast CSCs population from SUM-159PT cells. […] The live cells were collected and counted, the same amount of control cells and B591-treated cells were then incubated into the fourth left and right mammary fat pad of mice, respectively, according the indicated number for each group. Tumors were inspected 3 months later, and the tumor initiating frequency (TIF) was calculated with ELDA software. […]
In mammosphere formation assay, mammospheres were cultured in the presence of B591 for 5 days as described above and then were counted and imaged under a phase-contrast microscopy (Nikon, Japan).

[3] = tested on: SUM-159PT orthotopic xenografts; experiment: Tumor recurrence study in SUM-159PT xenografts; format: in vivo, NOD/SCID mice; settings: B591 10 mg/kg
Method: Fig. 6 B591 reduces breast tumor metastasis and recurrence. a Representative images show the effect of B591 (8 mg/kg) on lung metastasis of 4T1 cells, and data from six mice were plotted. b SUM-159PT cells were respectively treated with the indicated agents (8 nM Paclitaxel, 8 nM Paclitaxel plus 5 μM B591) for 24 h, the cells were then cultured for mammospheres. Representative images were shown, and data from two independent experiments were plotted. c–f SUM-159PT xenografts (n = 7) were treated with 4 mg/kg Paclitaxel, or 10 mg/kg B591, or both for 2 weeks, then ended the treatment and waited for tumor recurrence. Tumor volume (c) and body weight (d) were measured every 2 days after treatment, and tumors were photographed (e) and weighted (f) at the end of the experiment. ^*p < 0.05, ^**p < 0.01 versus indicated groups
In the tumor recurrence study, orthotopic xenografts were established with 5 × 10^6 SUM-159PT cells. When tumor volume reached about 50 mm^3, mice were randomly divided into four groups for treatment with vehicle, 4 mg/kg Paclitaxel, 10 mg/kg B591, and combination of 4 mg/kg Paclitaxel plus 10 mg/kg B591 (i.p.). Treatment was stopped after 2 weeks, and the tumors were allowed for recurrence for 3 weeks. Tumor volume and the body weight of mice were measured during the experiments. In the end of treatment, the mice were killed, and the tumor tissues were dissected and weighted.

Structure (SMILES): Cc1cc2c(cc1C)[n+](Cc1ccccc1Br)cn2Cc1ccc2c(c1)CCO2.[Br-] [B591, 3-(2-bromobenzyl)-1-((2,3-dihydrobenzofuran-5-yl)methyl) -5,6-dimethyl-1H-benzo[d]imidazol-3-ium bromide]
- IC50 for decrease of PIP3/PI(4,5)P2 ratio [1]: 1.910 µM
- Size and number of primary mammospheres [2]: reduced by B591 in a concentration-dependent manner
- Body weight ([3]; with or without paclitaxel 4 mg/kg): no significant body weight loss
- Tumor growth and regrowth after end of treatment ([3]; paclitaxel 4 mg/kg, i.p., 2 weeks, then 3 weeks recurrence): significant inhibition of tumor growth and notably delayed the relapse of breast cancer following cessation of paclitaxel treatment
